One may read the IC50 as the concentration that gives 50% inhibition.

Bounds are passed on as bounds.

The text below walks through data of ChEMBL document CHEMBL2169825, “Development of selective, potent RabGGTase inhibitors” (J Med Chem, 2012).

Assay [1] is described as follows: Inhibition of GGTase 1 using NBD-FPP as substrate after 10 mins by solution based fluorometric assay.
A short description of assay [2]: Inhibition of FTase using NBD-GPP as substrate after 10 mins by solution based fluorometric assay.
Assay [3] can be described thus: Inhibition of RabGGTase using [3H]GGPP as substrate after 1 hr by scintillation proximity assay.
Another assay concerns HCT-116. Nature of the assay: Cytotoxicity against human HCT116 cells after 24 hrs by Alamar Blue assay. It counts as functional, cell-based. The settings on record: HCT-116, 24 h. (Resazurin is reduced to fluorescent resorufin, in cell work by metabolically active cells.)
A further assay has as its system A2780. Nature of the assay: Cytotoxicity against human A2780 cells after 24 hrs by Alamar Blue assay. It counts as functional, cell-based. The settings on record: A2780, 24 h.
Assay [4] can be described thus: Inhibition of RabGGTase in human HeLa cells after 6 hrs by reprenylation assay. It counts as cell-based.
In a further assay the test system is PBMC. Nature of the assay: Cytotoxicity against human PBMC cells after 24 hrs by Alamar Blue assay. It counts as cell-based.
In another assay the test system is HeLa. The experiment in a line: Cytotoxicity against human HeLa cells after 24 hrs by Alamar Blue assay. The class given is functional, cell-based.
For a further assay, the system named is A549. The experiment in a line: Cytotoxicity against human A549 cells after 24 hrs by Alamar Blue assay. The class given is functional, cell-based. The settings on record: A549, 24 h.
Assay [5] can be described thus: Inhibition of RabGGTase using NBD-FPP as substrate after 5 mins by fluorometric assay.
In the next assay the test system is DU-145. The experiment in a line: Cytotoxicity against human DU145 cells after 24 hrs by Alamar Blue assay. The class given is functional, cell-based. The settings on record: DU-145, 24 h.

As to `COc1ccc(S(=O)(=O)N2Cc3cc(-c4ccc(C#N)o4)ccc3N(Cc3cncn3C)C[C@H]2Cc2ccc(Nc3ccccc3)cc2)cc1`, the results for the IC50 in assay [1], in assay [2] and in assay [3] were over 99.5 µM, 1.21 µM and 1.06 µM, respectively.
Regarding `COc1ccc(S(=O)(=O)N2Cc3cc(-c4ccnc(OC)c4)ccc3N(Cc3cncn3C)C[C@H]2Cc2ccc(Nc3ccccc3)cc2)cc1`, the IC50 in assay [1] was over 99.5 µM; in [2] it was 2.43 µM; in [3], 5.72 µM.
`CCN(CC)C(=O)Oc1ccc(C[C@@H]2CN(Cc3cncn3C)c3ccc(C#N)cc3CN2S(=O)(=O)c2ccc(OC)cc2)cc1`: the half-maximal inhibitory concentration (IC50) in the assay on HCT-116 is 0.075 µM; in the assay on A2780, 0.043 µM; in assay [1], 2.02 µM; in assay [4], 0.343 µM; in the assay on PBMC it was over 10 µM; in assay [3], 0.123 µM. Also, the half-inhibitory concentration (IC50) is 0.745 µM in the assay with HeLa and 0.412 µM in the assay on A549.
Regarding `COc1ccc(S(=O)(=O)N2Cc3cc(-c4ccnc(OC)c4)ccc3N(Cc3cncn3C)C[C@H]2Cc2ccc(OCc3ccccc3)cc2)cc1`, the half-inhibitory concentration (IC50) in assay [1] is over 99.5 µM; in assay [2], 2.56 µM; in assay [3], 5.25 µM.
In the case of `COc1ccc(S(=O)(=O)N2Cc3cc(-c4ccc(C=O)o4)ccc3N(Cc3cncn3C)C[C@H]2Cc2ccc(O)cc2)cc1`, the concentration for half-maximal inhibition (IC50) was over 99.5 µM in [1], 0.007 µM in assay [2], 0.12 µM in assay [4] and 0.206 µM in assay [5].
For `CCCCCCNC(=O)c1ccc2c(c1)CN(S(=O)(=O)c1ccc(OC)cc1)[C@H](Cc1ccc(O)cc1)CN2Cc1cncn1C`, the half-inhibitory concentration (IC50) in assay [1] was over 99.5 µM; in [2], 0.0207 µM; in assay [4] it was 3.89 µM; in [3], 0.0705 µM.
For the molecule `COc1ccc(S(=O)(=O)N2Cc3cc(-c4ccnc(OC)c4)ccc3N(Cc3cncn3C)C[C@H]2Cc2ccc(O)cc2)cc1`, the results for the IC50 in assay [1], in assay [2] and in [3] were over 99.5 µM, 0.0186 µM and 0.0055 µM, respectively.
Regarding `COc1ccc(S(=O)(=O)N2Cc3cc(N4CCN(C(C)=O)CC4)ccc3N(Cc3cncn3C)C[C@H]2Cc2ccc(O)cc2)cc1`, the results for the IC50 in assay [1], in [2] and in [3] were over 99.5 µM, 0.112 µM and 0.027 µM, respectively.
The matching figures for `COc1ccc(S(=O)(=O)N2Cc3cc(-c4cc(F)cc(F)c4)ccc3N(Cc3cncn3C)C[C@H]2Cc2ccc(O)cc2)cc1`: over 99.5 µM, 0.172 µM and 0.185 µM.
Take `COc1ccc(S(=O)(=O)N2Cc3cc(Nc4ccccc4)ccc3N(Cc3cncn3C)C[C@H]2Cc2ccc(O)cc2)cc1`: the IC50 in [1] was over 99.5 µM; in assay [2] it was 0.454 µM; in [3], 0.246 µM.
As for `COc1ccc(S(=O)(=O)N2Cc3cc(C#N)ccc3N(Cc3cncn3C)C[C@H]2Cc2ccc(O)cc2)cc1`, the IC50 is 0.172 µM with HCT-116; 0.1 µM in the assay with A2780; over 99.5 µM in assay [1]; 0.0052 µM in assay [2]; 0.115 µM in [4]; 0.162 µM in the assay with DU-145. In addition, the IC50 was under 0.004 µM in assay [3], 0.13 µM in the assay on HeLa, 0.315 µM with A549 and 1.01 µM in [5].
In the case of `COc1ccc(S(=O)(=O)N2Cc3cc(-c4ccc(C=O)o4)ccc3N(Cc3cncn3C)C[C@H]2Cc2ccc(OS(=O)(=O)C(F)(F)F)cc2)cc1`, the IC50 is over 99.5 µM in assay [1], over 9.7 µM in assay [2] and 4.29 µM in [3].
Regarding `COc1ccc(S(=O)(=O)N2Cc3cc(-c4ccc(C=O)o4)ccc3N(Cc3cncn3C)C[C@H]2Cc2ccc(-c3ccc(Cl)cc3)cc2)cc1`, the half-maximal inhibitory concentration (IC50) in assay [1] is over 99.5 µM; in assay [2] it was over 9.7 µM; in assay [3] it was 2.24 µM.
Take `COc1ccc(S(=O)(=O)N2Cc3cc(C#N)ccc3N(Cc3cncn3C)C[C@H]2Cc2ccc(OS(=O)(=O)C(F)(F)F)cc2)cc1`: the IC50 with A2780 is 0.092 µM; in assay [1] it was over 99.5 µM; in [4], over 10 µM; with DU-145, 3.1 µM; in the assay on PBMC, over 10 µM; in assay [3], 1.5 µM. The half-maximal inhibitory concentration (IC50) in the assay on HeLa is 1.96 µM; in the assay on A549, 2.22 µM; in assay [5], 18.6 µM.
As to `COc1ccc(S(=O)(=O)N2Cc3cc(C(=O)NCc4ccccc4)ccc3N(Cc3cncn3C)C[C@H]2Cc2ccc(O)cc2)cc1`, the values for the IC50 in assay [1], in [2] and in assay [3] were over 99.5 µM, 0.007 µM and 0.019 µM, respectively.
With `CCCCCCNC(=O)Oc1ccc(C[C@@H]2CN(Cc3cncn3C)c3ccc(C#N)cc3CN2S(=O)(=O)c2ccc(OC)cc2)cc1`, the concentration for half-maximal inhibition (IC50) in the assay on HCT-116 was 0.355 µM; in the assay on A2780, 0.233 µM; in assay [1], over 99.5 µM; in assay [4], 0.0773 µM; in the assay on DU-145, 0.228 µM; in [3] it was 0.0155 µM. The IC50 in the assay on A549 amounted to 0.289 µM; in assay [5], 0.243 µM.
Turning to `COc1ccc(S(=O)(=O)N2Cc3cc(C#N)ccc3N(Cc3cncn3C)C[C@H]2Cc2ccc(OCc3ccccc3)cc2)cc1`, the IC50 in the assay on HCT-116 was 1.05 µM; in the assay on A2780 it was 0.265 µM; in [1], over 99.5 µM; in [2], 0.0993 µM; with DU-145 it was 0.756 µM; with PBMC, over 10 µM. The IC50 worked out at 0.181 µM in assay [3], 0.372 µM with HeLa, 0.746 µM in the assay with A549 and 0.441 µM in assay [5].
As to `COc1ccc(S(=O)(=O)N2Cc3cc(-c4ccc(C#N)o4)ccc3N(Cc3cncn3C)C[C@H]2Cc2ccc(O)cc2)cc1`, the IC50 in the assay on HCT-116 is 0.002 µM; in the assay on A2780, 0.018 µM; in assay [1], over 99.5 µM; in [2], 0.0269 µM; in [4] it was 0.011 µM; with PBMC, over 10 µM. The values for the 50% inhibitory concentration (IC50) (in [3]; in the assay with HeLa; in assay [5]) were under 0.014 µM, 0.021 µM and 0.0625 µM, respectively.
`COc1ccc(S(=O)(=O)N2Cc3cc(-c4cccc(C#N)c4)ccc3N(Cc3cncn3C)C[C@H]2Cc2ccc(O)cc2)cc1`: the IC50 in assay [1] was over 99.5 µM; in assay [2], 0.0344 µM; in assay [3] it was 0.0225 µM.
The matching figures for `COc1ccc(S(=O)(=O)N2Cc3cc(-c4ccc(Cl)cc4)ccc3N(Cc3cncn3C)C[C@H]2Cc2ccc(O)cc2)cc1`: over 99.5 µM, 0.194 µM and 0.706 µM.
The matching figures for `COc1ccc(S(=O)(=O)N2Cc3cc(-c4ccncc4)ccc3N(Cc3cncn3C)C[C@H]2Cc2ccc(O)cc2)cc1`: over 99.5 µM, 0.0136 µM and under 0.004 µM.
Regarding `COc1ccc(S(=O)(=O)N2Cc3cc(-c4ccnc(OC)c4)ccc3N(Cc3cncn3C)C[C@H]2Cc2ccc(-c3cccnc3)cc2)cc1`, the half-maximal inhibitory concentration (IC50) in assay [1] was over 99.5 µM; in assay [2] it was 0.079 µM; in assay [4] it was 0.3 µM; in assay [3], 0.121 µM.
For the molecule `COc1ccc(S(=O)(=O)N2Cc3cc(-c4ccco4)ccc3N(Cc3cncn3C)C[C@H]2Cc2ccc(O)cc2)cc1`, the IC50 was over 99.5 µM in [1], 0.0817 µM in [2] and 0.055 µM in assay [3].
In the case of `COc1ccc(S(=O)(=O)N2Cc3cc(-c4ccnc(OC)c4)ccc3N(Cc3cncn3C)C[C@H]2Cc2ccc(OC(=O)NCc3ccccc3)cc2)cc1`, the IC50 is over 99.5 µM in assay [1], 0.321 µM in [2], 0.338 µM in assay [4] and 0.055 µM in assay [3].
Consider `COc1ccc(S(=O)(=O)N2Cc3cc(-c4ccc(C=O)o4)ccc3N(Cc3cncn3C)C[C@H]2Cc2ccc(OC(=O)NCc3ccccc3)cc2)cc1`, for which the IC50 with HCT-116 was 0.443 µM; in the assay with A2780, 0.589 µM; in [1] it was over 99.5 µM; in [2], over 9.7 µM; in assay [4] it was 0.311 µM; in the assay on PBMC, over 10 µM. The IC50 in assay [3] came to 1.55 µM; in the assay on HeLa it was 0.797 µM; in assay [5], 0.616 µM.
As for `COc1ccc(S(=O)(=O)N2Cc3cc(-c4ccc(C#N)o4)ccc3N(Cc3cncn3C)C[C@H]2Cc2ccc(OS(=O)(=O)C(F)(F)F)cc2)cc1`, the IC50 in the assay on HCT-116 is 0.071 µM; in the assay on A2780 it was 0.222 µM; in assay [4] it was 0.054 µM; in the assay with PBMC, over 10 µM; in the assay with HeLa it was 0.13 µM.
As to `COc1ccc(S(=O)(=O)N2Cc3cc(-c4ccc(C#N)o4)ccc3N(Cc3cncn3C)C[C@H]2Cc2ccc(-c3cccnc3)cc2)cc1`, the results for the IC50 in assay [1], in [2] and in assay [3] were over 99.5 µM, 0.11 µM and 0.037 µM, respectively.
In the case of `COc1ccc(S(=O)(=O)N2Cc3cc(C#N)ccc3N(Cc3cncn3C)C[C@H]2Cc2ccc(OC/C=C(\C)CCC=C(C)C)cc2)cc1`, the half-maximal inhibitory concentration (IC50) in the assay on HCT-116 is 1.43 µM; in the assay with A2780, 1.38 µM; in assay [1] it was over 99.5 µM; in [2] it was 1.01 µM; in assay [4], 0.278 µM; in the assay with PBMC it was over 10 µM. Moreover, the IC50 in assay [3] was determined as 0.0235 µM; in the assay on A549, 0.653 µM; in [5] it was 2.07 µM.
On to `COc1ccc(S(=O)(=O)N2Cc3cc(-c4ccc(C#N)o4)ccc3N(Cc3cncn3C)C[C@H]2Cc2ccc(OC(=O)NCc3ccccc3)cc2)cc1`, for which the IC50 was 0.035 µM in the assay on HCT-116; 0.115 µM in the assay on A2780; over 99.5 µM in assay [1]; over 9.7 µM in [2]; 0.049 µM in assay [4]; over 10 µM in the assay with PBMC. In addition, the IC50 was 0.26 µM in assay [3], 0.101 µM in the assay with HeLa and 0.0416 µM in assay [5].
Regarding `COc1ccc(S(=O)(=O)N2Cc3cc(-c4ccc(C#N)o4)ccc3N(Cc3cncn3C)C[C@H]2Cc2ccc(OCc3ccccc3)cc2)cc1`, the half-maximal inhibitory concentration (IC50) in assay [1] was over 99.5 µM; in [2] it was over 9.7 µM; in [4], 0.213 µM; in [3], 0.577 µM.
